Like-named read-outs stand apart in the source and are kept apart here.

The target in the test is ATR kinase (full-length ATR) (Homo sapiens (Human), UniProt Q13535). Description: ATR inhibition assay (radioactive-phosphate incorporation). Format: biochemical. Summed up: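 Ki(app) was fitted by non-linear regression to background-corrected initial rates. Full-length ATR (5 nM) phosphorylated 800 μM peptide using 10 μM [γ-33P]ATP at 25° C in Tris/HCl pH 7.5 buffer with MgCl2, DTT and 7% DMSO. After 10-minute compound pre-incubation and 24-hour reaction, phosphocellulose filters were scintillation counted.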
Sequence of ATR kinase (full-length ATR) (Q13535 whole entry): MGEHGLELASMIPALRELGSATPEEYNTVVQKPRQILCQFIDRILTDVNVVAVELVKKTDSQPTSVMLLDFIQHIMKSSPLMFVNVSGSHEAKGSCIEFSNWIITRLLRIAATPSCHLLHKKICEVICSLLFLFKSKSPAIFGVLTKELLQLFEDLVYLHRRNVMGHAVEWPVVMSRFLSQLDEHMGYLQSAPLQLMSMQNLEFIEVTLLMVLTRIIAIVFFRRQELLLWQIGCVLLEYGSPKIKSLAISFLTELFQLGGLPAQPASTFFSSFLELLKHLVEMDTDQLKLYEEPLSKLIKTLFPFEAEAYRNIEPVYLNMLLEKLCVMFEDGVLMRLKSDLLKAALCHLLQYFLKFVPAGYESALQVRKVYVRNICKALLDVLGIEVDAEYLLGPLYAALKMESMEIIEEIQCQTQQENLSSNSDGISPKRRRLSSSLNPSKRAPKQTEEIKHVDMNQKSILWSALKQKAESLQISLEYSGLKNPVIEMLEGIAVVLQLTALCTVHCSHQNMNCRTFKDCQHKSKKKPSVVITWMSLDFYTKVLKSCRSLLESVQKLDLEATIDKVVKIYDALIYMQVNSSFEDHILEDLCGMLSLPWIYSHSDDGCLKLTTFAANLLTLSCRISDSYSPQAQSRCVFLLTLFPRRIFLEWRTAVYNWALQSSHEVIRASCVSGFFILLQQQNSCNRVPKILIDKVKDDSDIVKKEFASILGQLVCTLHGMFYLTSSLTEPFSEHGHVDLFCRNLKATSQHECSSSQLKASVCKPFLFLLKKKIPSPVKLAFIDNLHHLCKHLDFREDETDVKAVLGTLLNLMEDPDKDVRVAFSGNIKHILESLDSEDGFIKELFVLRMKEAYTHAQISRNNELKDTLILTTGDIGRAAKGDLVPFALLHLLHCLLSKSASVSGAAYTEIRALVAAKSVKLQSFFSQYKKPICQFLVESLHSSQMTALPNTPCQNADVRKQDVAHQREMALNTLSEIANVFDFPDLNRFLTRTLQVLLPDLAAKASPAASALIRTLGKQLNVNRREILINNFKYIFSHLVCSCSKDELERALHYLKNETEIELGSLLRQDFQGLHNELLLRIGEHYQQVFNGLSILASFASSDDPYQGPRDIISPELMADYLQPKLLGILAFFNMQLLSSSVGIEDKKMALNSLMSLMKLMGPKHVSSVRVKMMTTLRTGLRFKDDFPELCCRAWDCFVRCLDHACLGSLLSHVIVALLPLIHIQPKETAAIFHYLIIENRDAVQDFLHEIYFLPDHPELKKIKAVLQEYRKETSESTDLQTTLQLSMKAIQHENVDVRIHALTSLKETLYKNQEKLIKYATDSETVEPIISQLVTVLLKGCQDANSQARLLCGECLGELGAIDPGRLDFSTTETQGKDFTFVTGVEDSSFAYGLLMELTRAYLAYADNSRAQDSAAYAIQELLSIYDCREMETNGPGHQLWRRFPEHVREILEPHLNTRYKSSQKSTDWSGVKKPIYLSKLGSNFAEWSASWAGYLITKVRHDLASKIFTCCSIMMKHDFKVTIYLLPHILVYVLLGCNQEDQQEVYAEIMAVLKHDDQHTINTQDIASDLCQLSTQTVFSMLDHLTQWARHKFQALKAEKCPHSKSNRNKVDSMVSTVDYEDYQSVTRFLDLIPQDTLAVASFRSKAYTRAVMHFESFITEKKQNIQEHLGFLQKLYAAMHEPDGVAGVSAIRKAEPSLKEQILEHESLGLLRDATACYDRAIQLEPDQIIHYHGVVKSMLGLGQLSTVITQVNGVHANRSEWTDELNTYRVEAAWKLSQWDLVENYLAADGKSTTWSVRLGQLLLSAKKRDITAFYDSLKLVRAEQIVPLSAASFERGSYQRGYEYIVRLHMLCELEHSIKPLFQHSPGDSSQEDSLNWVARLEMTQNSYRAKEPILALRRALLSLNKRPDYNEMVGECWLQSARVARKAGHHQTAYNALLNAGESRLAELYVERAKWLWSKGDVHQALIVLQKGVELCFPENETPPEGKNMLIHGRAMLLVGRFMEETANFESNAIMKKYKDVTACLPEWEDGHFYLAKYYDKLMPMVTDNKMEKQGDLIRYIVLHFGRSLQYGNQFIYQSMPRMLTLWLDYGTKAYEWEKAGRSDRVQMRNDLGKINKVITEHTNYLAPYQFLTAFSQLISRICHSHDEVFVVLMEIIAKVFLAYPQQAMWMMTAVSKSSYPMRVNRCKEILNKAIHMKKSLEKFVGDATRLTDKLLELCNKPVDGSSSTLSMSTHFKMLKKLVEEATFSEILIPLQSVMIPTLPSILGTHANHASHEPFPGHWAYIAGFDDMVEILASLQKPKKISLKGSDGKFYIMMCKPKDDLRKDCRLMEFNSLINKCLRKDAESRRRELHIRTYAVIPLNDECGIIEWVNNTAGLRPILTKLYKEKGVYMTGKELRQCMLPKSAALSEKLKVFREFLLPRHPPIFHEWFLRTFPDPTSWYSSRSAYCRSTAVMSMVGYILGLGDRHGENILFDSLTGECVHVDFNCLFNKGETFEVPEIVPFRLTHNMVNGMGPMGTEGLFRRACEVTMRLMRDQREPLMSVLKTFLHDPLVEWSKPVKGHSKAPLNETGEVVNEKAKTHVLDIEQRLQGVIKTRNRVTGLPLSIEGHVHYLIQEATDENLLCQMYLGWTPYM

Setting [1] is: Ki(app), 5 nM full-length ATR, 10 μM ATP, 25° C.

Turning to `CN1CCCCC1C(=O)N1CCN(c2c(F)cncc2NC(=O)c2c(N)nn3cc(F)cnc23)CC1` (stereo not drawn) [I-N-214, 2-amino-6-fluoro-N-(5-fluoro-4-(4-(1-methylpiperidine-2-carbonyl)piperazin-1-yl)pyridin-3-yl)pyrazolo[1,5-a]pyrimidine-3-carboxamide], the Ki under setting [1] fell in the range of 10 to 1000 nM.

With `COC1CCN(C2CCN(c3ccncc3NC(=O)c3c(N)nn4cc(Cl)cnc34)CC2)C1` (stereo not drawn) [I-N-95, 2-amino-6-chloro-N-(4-(4-(3-methoxypyrrolidin-1-yl)piperidin-1-yl)pyridin-3-yl)pyrazolo[1,5-a]pyrimidine-3-carboxamide], the Ki under setting [1] lay within 10 to 1000 nM.

For `Nc1nn2cc(Cl)cnc2c1C(=O)Nc1cnccc1N1CCN2CCC1CC2` [I-N-56, N-(4-(1,4-diazabicyclo[3.2.2]nonan-4-yl)pyridin-3-yl)-2-amino-6-chloropyrazolo[1,5-a]pyrimidine-3-carboxamide], the Ki under setting [1] lay within 10 to 1000 nM.

Take `COC1CN(C2CCN(c3ccncc3NC(=O)c3c(N)nn4cc(Cl)cnc34)CC2)C1` [I-N-107, 2-amino-6-chloro-N-(4-(4-(3-methoxyazetidin-1-yl)piperidin-1-yl)pyridin-3-yl)pyrazolo[1,5-a]pyrimidine-3-carboxamide]: the Ki under setting [1] was 10 to 1000 nM.

Regarding `CCN1CCN(c2ccncc2NC(=O)c2c(N)nn3cc(Cl)cnc23)CC1` [I-N-51, 2-amino-6-chloro-N-(4-(4-ethylpiperazin-1-yl)pyridin-3-yl)pyrazolo[1,5-a]pyrimidine-3-carboxamide], under setting [1], the Ki was in the range of 10 to 1000 nM.

Regarding `Nc1nn2cc(F)cnc2c1C(=O)Nc1cnccc1N1CCCC2(COC2)C1` [I-N-253, N-(4-(2-oxa-6-azaspiro[3.5]nonan-6-yl)pyridin-3-yl)-2-amino-6-fluoropyrazolo[1,5-a]pyrimidine-3-carboxamide], under setting [1], the Ki was in the range of 10 to 1000 nM.

With `Nc1nn2cc(F)cnc2c1C(=O)Nc1cncc(F)c1N1CCC(C(=O)N2CC3CCC(C2)N3)CC1` [I-G-44, N-(4-(4-(3,8-diazabicyclo[3.2.1]octane-3-carbonyl)piperidin-1-yl)-5-fluoropyridin-3-yl)-2-amino-6-fluoropyrazolo[1,5-a]pyrimidine-3-carboxamide], the Ki under setting [1] lay within 10 to 1000 nM.

Consider `Nc1nn2cc(F)cnc2c1C(=O)Nc1cnccc1-n1cnc(C(F)(F)F)c1` [I-N-27, 2-amino-6-fluoro-N-(4-(4-(trifluoromethyl)-1H-imidazol-1-yl)pyridin-3-yl)pyrazolo[1,5-a]pyrimidine-3-carboxamide], for which, under setting [1], the Ki fell in the range of 10 to 1000 nM.

For `Nc1nn2cc(F)cnc2c1C(=O)Nc1cnccc1N1CCN2C(=O)CC[C@@H]2C1` [I-N-258, (R)-2-amino-6-fluoro-N-(4-(6-oxohexahydropyrrolo[1,2-a]pyrazin-2(1H)-yl)pyridin-3-yl)pyrazolo[1,5-a]pyrimidine-3-carboxamide], the Ki under setting [1] was in the range of 10 to 1000 nM.

With `Nc1nn2cc(F)cnc2c1C(=O)Nc1cnccc1OC1COC1` [I-O-92, 2-amino-6-fluoro-N-(4-(oxetan-3-yloxy)pyridin-3-yl)pyrazolo[1,5-a]pyrimidine-3-carboxamide], the Ki under setting [1] fell in the range of 10 to 1000 nM.

In the case of `CC1(O)CN(C(=O)C2CCN(c3c(F)cncc3NC(=O)c3c(N)nn4cc(F)cnc34)CC2)C1` [I-G-63, 2-amino-6-fluoro-N-(5-fluoro-4-(4-(3-hydroxy-3-methylazetidine-1-carbonyl)piperidin-1-yl)pyridin-3-yl)pyrazolo[1,5-a]pyrimidine-3-carboxamide], the Ki under setting [1] fell in the range of 10 to 1000 nM.

In the case of `CS(=O)(=O)C1CN(C(=O)C2CCN(c3ccncc3NC(=O)c3c(N)nn4cc(F)cnc34)CC2)C1` [I-G-89, 2-amino-6-fluoro-N-(4-(4-(3-(methylsulfonyl)azetidine-1-carbonyl)piperidin-1-yl)pyridin-3-yl)pyrazolo[1,5-a]pyrimidine-3-carboxamide], the Ki under setting [1] lay within 10 to 1000 nM.

For the compound `CN1CCC(Oc2c(Cl)cncc2NC(=O)c2c(N)nn3cc(Cl)cnc23)CC1` [I-O-46, 2-amino-6-chloro-N-(5-chloro-4-((1-methylpiperidin-4-yl)oxy)pyridin-3-yl)pyrazolo[1,5-a]pyrimidine-3-carboxamide], the Ki was 1000 to 5000 nM.

Regarding `CN1CC2CN(c3c(Cl)cncc3NC(=O)c3c(N)nn4cc(F)cnc34)CC2C1` (stereo not drawn) [I-N-286, 2-amino-N-(5-chloro-4-(5-methylhexahydropyrrolo[3,4-c]pyrrol-2(1H)-yl)pyridin-3-yl)-6-fluoropyrazolo[1,5-a]pyrimidine-3-carboxamide], the Ki under setting [1] was in the range of 10 to 1000 nM.

`COc1cncc(NC(=O)c2c(N)nn3cc(F)cnc23)c1C1CC1` [I-C-84, 2-amino-N-(4-cyclopropyl-5-methoxypyridin-3-yl)-6-fluoropyrazolo[1,5-a]pyrimidine-3-carboxamide]: the Ki under setting [1] lay in the range of 10 to 1000 nM.

`CCC(C#N)c1cnc2c(C(=O)Nc3cnccc3OC)c(N)nn2c1` (stereo not drawn) [I-O-20, 2-amino-6-(1-cyanopropyl)-N-(4-methoxypyridin-3-yl)pyrazolo[1,5-a]pyrimidine-3-carboxamide]: under setting [1], the Ki fell in the range of 10 to 1000 nM.

`CN1CCC(C(=O)N2CCC(c3ccncc3NC(=O)c3c(N)nn4cc(F)cnc34)CC2)CC1` [I-C-16, 2-amino-6-fluoro-N-(4-(1-(1-methylpiperidine-4-carbonyl)piperidin-4-yl)pyridin-3-yl)pyrazolo[1,5-a]pyrimidine-3-carboxamide]: under setting [1], the Ki was 10 to 1000 nM.

Consider `Nc1nn2cc(F)cnc2c1C(=O)Nc1cncc(C2CC2)c1N1CCN([C@H]2CCOC2)CC1` [I-N-120, (S)-2-amino-N-(5-cyclopropyl-4-(4-(tetrahydrofuran-3-yl)piperazin-1-yl)pyridin-3-yl)-6-fluoropyrazolo[1,5-a]pyrimidine-3-carboxamide], for which, under setting [1], the Ki was 10 to 1000 nM.

Take `Nc1nn2cc(F)cnc2c1C(=O)Nc1cncc(F)c1C1CCN(C2COC2)CC1` [I-C-13, 2-amino-6-fluoro-N-(5-fluoro-4-(1-(oxetan-3-yl)piperidin-4-yl)pyridin-3-yl)pyrazolo[1,5-a]pyrimidine-3-carboxamide]: the Ki lay within 1000 to 5000 nM.

With `CC(C)(O)CN1CCN(c2c(F)cncc2NC(=O)c2c(N)nn3cc(F)cnc23)CC1` [I-N-139, 2-amino-6-fluoro-N-(5-fluoro-4-(4-(2-hydroxy-2-methylpropyl)piperazin-1-yl)pyridin-3-yl)pyrazolo[1,5-a]pyrimidine-3-carboxamide], the Ki under setting [1] is 10 to 1000 nM.

Take `CN1CCN(c2c(C#N)cncc2NC(=O)c2c(N)nn3cc(F)cnc23)CC1` [I-N-113, 2-amino-N-(5-cyano-4-(4-methylpiperazin-1-yl)pyridin-3-yl)-6-fluoropyrazolo[1,5-a]pyrimidine-3-carboxamide]: the Ki was 1000 to 5000 nM.

In the case of `Cc1ncc(-c2ccncc2NC(=O)c2c(N)nn3cc(F)cnc23)n1C` [I-C-77, 2-amino-N-(4-(1,2-dimethyl-1H-imidazol-5-yl)pyridin-3-yl)-6-fluoropyrazolo[1,5-a]pyrimidine-3-carboxamide], under setting [1], the Ki is 10 to 1000 nM.

Turning to `Nc1nn2cc(F)cnc2c1C(=O)Nc1cncc(Cl)c1N1CCNCC1` [I-N-126, 2-amino-N-(5-chloro-4-(piperazin-1-yl)pyridin-3-yl)-6-fluoropyrazolo[1,5-a]pyrimidine-3-carboxamide], the Ki under setting [1] fell in the range of 10 to 1000 nM.

For the compound `Nc1nn2cc(F)cnc2c1C(=O)Nc1cncc(F)c1N1CCC(N2CCCC2=O)CC1` [I-N-147, 2-amino-6-fluoro-N-(5-fluoro-4-(4-(2-oxopyrrolidin-1-yl)piperidin-1-yl)pyridin-3-yl)pyrazolo[1,5-a]pyrimidine-3-carboxamide], the Ki under setting [1] is 10 to 1000 nM.

Regarding `Nc1nn2cc(F)cnc2c1C(=O)Nc1cnccc1C1CCOC1` (stereo not drawn) [I-C-75, 2-amino-6-fluoro-N-(4-(tetrahydrofuran-3-yl)pyridin-3-yl)pyrazolo[1,5-a]pyrimidine-3-carboxamide], the Ki under setting [1] lay within 10 to 1000 nM.

Consider `Nc1nn2cc(F)cnc2c1C(=O)Nc1cnccc1-n1cccn1` [I-N-26, N-(4-(1H-pyrazol-1-yl)pyridin-3-yl)-2-amino-6-fluoropyrazolo[1,5-a]pyrimidine-3-carboxamide], for which, under setting [1], the Ki lay within 10 to 1000 nM.

Consider `COc1ccncc1NC(=O)c1c(N)nn2cc(F)cnc12` [I-O-4, 2-amino-6-fluoro-N-(4-methoxypyridin-3-yl)pyrazolo[1,5-a]pyrimidine-3-carboxamide], for which, under setting [1], the Ki fell in the range of 10 to 1000 nM.

Regarding `CC(=O)N1CCC(c2ccncc2NC(=O)c2c(N)nn3cc(F)cnc23)CC1` [I-C-69, N-(4-(1-acetylpiperidin-4-yl)pyridin-3-yl)-2-amino-6-fluoropyrazolo[1,5-a]pyrimidine-3-carboxamide], the Ki under setting [1] lay in the range of 10 to 1000 nM.

Take `N#CCc1cnc2c(C(=O)Nc3cnccc3OCCN)c(N)nn2c1` [I-O-83, 2-amino-N-(4-(2-aminoethoxy)pyridin-3-yl)-6-(cyanomethyl)pyrazolo[1,5-a]pyrimidine-3-carboxamide]: under setting [1], the Ki is less than 10 nM.

As for `CN(C)CCCNC(=O)C1CCN(c2c(F)cncc2NC(=O)c2c(N)nn3cc(F)cnc23)CC1` [I-G-26, 2-amino-N-(4-(4-((3-(dimethylamino)propyl)carbamoyl)piperidin-1-yl)-5-fluoropyridin-3-yl)-6-fluoropyrazolo[1,5-a]pyrimidine-3-carboxamide], the Ki under setting [1] is 10 to 1000 nM.

For the compound `CN(C)[C@@H]1CCN(C(=O)C2CCN(c3c(F)cncc3NC(=O)c3c(N)nn4cc(F)cnc34)CC2)C1` [I-G-11, (R)-2-amino-N-(4-(4-(3-(dimethylamino)pyrrolidine-1-carbonyl)piperidin-1-yl)-5-fluoropyridin-3-yl)-6-fluoropyrazolo[1,5-a]pyrimidine-3-carboxamide], under setting [1], the Ki fell in the range of 10 to 1000 nM.

`C[C@H]1CN(C(=O)C2CCN(c3c(F)cncc3NC(=O)c3c(N)nn4cc(F)cnc34)CC2)CCN1` [I-G-61, (S)-2-amino-6-fluoro-N-(5-fluoro-4-(4-(3-methylpiperazine-1-carbonyl)piperidin-1-yl)pyridin-3-yl)pyrazolo[1,5-a]pyrimidine-3-carboxamide]: the Ki under setting [1] lay within 10 to 1000 nM.

Regarding `Nc1nn2cc(Cl)cnc2c1C(=O)Nc1cnccc1C1CCN(C2COC2)CC1` [I-C-11, 2-amino-6-chloro-N-(4-(1-(oxetan-3-yl)piperidin-4-yl)pyridin-3-yl)pyrazolo[1,5-a]pyrimidine-3-carboxamide], the Ki under setting [1] is 10 to 1000 nM.

Values taken from patent US10392391B2 (Vertex Pharmaceuticals Incorporated, priority 2012, dated 2019).
